Experimental data published in patent US9199983B2, “3-aryl-6-aryl-[1,2,4]triazolo[4,3-α]pyridines as inhibitors of cell proliferation and the use thereof” (priority 2010, dated 2015).
Where a name gives a salt, the structure may show the parent alone.

Assays:
[1] = system: liver cancer cell line HepG2; experiment: MTT cancer cell cytotoxicity assay, HepG2; assay type: cell-based, human; conditions: Homo sapiens, HepG2 cells, 48-72 h
Experimental: (§1) Identification of 3-(2-methoxyphenyl)-6-(4-methoxyphenyl)-[1,2,4]triazolo[4,3-a]pyridine and analogs as inhibitors of cell proliferation that were evaluated with standard MTT cancer cell cytotoxicity assay (IC50)
(§2) Human lung cancer cell line A549, breast cancer cell line T47D, liver cancer cell lines HepG2 and SMMC7721 as well as a mouse melanoma cell line B16F10 were used in the study. The cells were cultured in corresponding growth media recommended by American Type Culture Collection (ATCC) with the supplementation of penicillin G (100 U/ml)/streptomycin (100 µg/ml), and 10% fetal bovine serum (Hangzhou Sijiqing Biological Engineering Materials, Co., Ltd. China) at 37° C. in a humidified atmosphere containing 5% CO2. Cells at about 80% confluency were harvested by trypsinization. Cells were centrifuged, re-suspended in fresh growth media and counted. Corresponding numbers of cells were seeded to 96-well cell culture plates (HepG2 cell, T-47D and A549 cells at 3000 cells/well, SMMC-7721 cells at 5000 cells/well and B16F10 cells at 2000 cells/well) in a total volume of […]. Cells were incubated in CO2 incubator over night to allow the cells to attach. In next day, […] of medium containing testing (from 10 μM to 1 nM) or reference compounds was added to each well of the cells. Media without compound were used as 100% control. Cells were treated with each concentration of compounds in triplicates to ensure data accuracy. Cells were incubated with compounds in CO2 incubator for an additional 48-72 h at 37° C. After incubation, cells were removed from the CO2 incubator and […] of 5 mg/ml MTT (3-(4,5-dimethylthiazole-2-yl)-2,5-diphenyltetrazoliumbromide, Sigma) solution in PBS was added to each well. Cells were returned to CO2 incubator and incubated for additional 4 h. After the incubation, media were removed by aspiration and […] DMSO was added to each well. Plates were sealed with aluminum foil and shaked mildly on an orbital shaker for 10 min at room temperature. The absorption was measured at 550 nm with a plate reader (Varioskan Flash, Thermo Fisher Scientific) with 660 nm reading used as background control. The relative absorbance readings were calculated by subtracting readings at 660 nm from that at 550 nm. The relative absorbance was plotted again the concentrations of the testing compounds and the plots were fitted with a one-site lg(IC50) equation using Prism 5 software (GraphPad Software, Inc). The equation used in the curve fitting is as follows: relative absorbance reading=background reading+(maximal reading−brackground reading)/(1+10 ^(compound concentration-log IC50)). The background reading used in the calculation was obtained with 100% cell death using a reference anticancer drug, whereas the maximal reading was obtained in the well with no added compound. The IC50 value calculated from the equation represents the cytotoxic potency of a particular compound.

[2] = system: Human lung cancer cell line A549; experiment: MTT cancer cell cytotoxicity assay, A549; assay type: cell-based; conditions: Homo sapiens, A549 cells, 48-72 h
Experimental: as §1, §2

[3] = system: liver cancer cell line SMMC7721; experiment: MTT cancer cell cytotoxicity assay, SMMC7721; assay type: cell-based, human; conditions: Homo sapiens, SMMC-7721, SMMC7721 cells, 48-72 h
Experimental: as §1, §2

[4] = system: breast cancer cell line T47D; experiment: MTT cancer cell cytotoxicity assay, T47D; assay type: cell-based, human; conditions: Homo sapiens, T47D cells, 48-72 h
Experimental: as §1, §2

Row | Compound | IC50 [1] [µM] | IC50 [2] [µM] | IC50 [3] [µM] | IC50 [4] [µM]
1 | COc1ccccc1-c1nnc2ccc(-c3ccc(N)cc3)cn12 [Example 47, 6-(4-Aminophenyl)-3-(2-methoxyphenyl)-[1,2,4]triazolo[4,3-a]pyridine hydrochloride] | 0.717 | 1.05 | 0.365 | 0.189
2 | COc1cc(-c2ccc3nnc(-c4ccccc4OC)n3c2)ccc1OCc1ccccc1 [Example 9, 6-(4-Benzyloxy-3-methoxyphenyl)-3-(2-methoxyphenyl)-[1,2,4]triazolo[4,3-a]pyridine] | > 10 | > 10 | > 10 | > 10
3 | COc1ccc(-c2ccc3nnc(-c4cc(C)ccc4OC)n3c2)cc1 [Example 76, 3-(2-Methoxy-5-methylphenyl)-6-(4-methoxyphenyl)-[1,2,4]triazolo[4,3-a]pyridine] | 0.283 | 0.533 | 0.104 | 0.633
4 | COc1ccc(-c2ccc3nnc(-c4cc(S(N)(=O)=O)ccc4OC)n3c2)cc1 [Example 75, 6-(4-Methoxyphenyl)-3-(2-methoxy-5-sulfamoylphenyl)-[1,2,4]triazolo[4,3-a]pyridine] | > 10 | > 10 | > 10 | > 10
5 | COc1ccc(-c2ccc3nnc(-c4ccc(F)cc4OC)n3c2)cc1 [Example 58, 3-(4-Fluoro-2-methoxyphenyl)-6-(4-methoxyphenyl)-[1,2,4]triazolo[4,3-a]pyridine] | 0.035 | 0.059 | 0.017 | 0.054
6 | COc1ccc(-c2ccc3nnc(-c4cccnc4OC)n3c2)cc1 [Example 86, 6-(4-Methoxyphenyl)-3-(2-methoxypyridin-3-yl)-[1,2,4]triazolo[4,3-a]pyridine] | 0.058 | 0.041 | 0.032 | 0.04
7 | COc1ccc(-c2ccc3nnc(-c4ccc(OC)c(OC)c4OC)n3c2)cc1 [Example 72, 6-(4-Methoxyphenyl)-3-(2,3,4-trimethoxyphenyl)-[1,2,4]triazolo[4,3-a]pyridine] | > 10 | > 10 | 4.14 | 8.16
8 | COc1ccccc1-c1nnc2ccc(-c3ccc(C)c(Cl)c3)cn12 [Example 19, 6-(3-Chloro-4-methylphenyl)-3-(2-methoxyphenyl)-[1,2,4]triazolo[4,3-a]pyridine] | 0.157 | 0.221 | 0.068 | 0.169
9 | COc1ccccc1-c1nnc2ccc(-c3ccc(C)c([N+](=O)[O-])c3)cn12 [Example 10, 3-(2-Methoxyphenyl)-6-(4-methyl-3-nitrophenyl)-[1,2,4]triazolo[4,3-a]pyridine] | 0.382 | > 10 | 0.618 | 1.37
10 | COc1ccccc1-c1nnc2ccc(-c3ccc(O)c(C)c3)cn12 [Example 41, 6-(4-Hydroxy-3-methylphenyl)-3-(2-methoxyphenyl)-[1,2,4]triazolo[4,3-a]pyridine] | 0.155 | 0.212 | 0.117 | 0.129
11 | COc1ccc(-c2cn3c(-c4ccccc4OC)nnc3cc2C)cc1 [Example 54, 3-(2-Methoxyphenyl)-6-(4-methoxyphenyl)-7-methyl-[1,2,4]triazolo[4,3-a]pyridine] | 0.134 | 0.428 | 0.094 | 0.151
12 | COc1ccccc1-c1nnc2ccc(-c3ccc(C)c(F)c3)cn12 [Example 33, 6-(3-Fluoro-4-methylphenyl)-3-(2-methoxyphenyl)-[1,2,4]triazolo[4,3-a]pyridine] | 0.772 | 0.63 | 0.164 | 0.804
13 | COc1ccc(-c2ccc3nnc(-c4ccccc4C)n3c2)cc1 [Example 78, 6-(4-Methoxyphenyl)-3-(2-methylphenyl)-[1,2,4]triazolo[4,3-a]pyridine] | 0.264 | 0.61 | 0.109 | 0.129
14 | COc1ccccc1-c1nnc2ccc(-c3cc(C)c(OC)c(C)c3)cn12 [Example 30, 6-(3,5-Dimethyl-4-methoxyphenyl)-3-(2-methoxyphenyl)-[1,2,4]triazolo[4,3-a]pyridine] | 2.37 | > 10 | 1.76 | 5.16
15 | COc1ncc(-c2ccc3nnc(-c4ccccc4OC)n3c2)cn1 [Example 18, 3-(2-Methoxyphenyl)-6-(2-methoxypyrimidin-5-yl)-[1,2,4]triazolo[4,3-a]pyridine] | > 10 | > 10 | > 10 | > 10
16 | COc1ccc(-c2ccc3nnc(-c4ccccc4N(C)C)n3c2)cc1 [Example 80, 3-(2-Dimethylaminophenyl)-6-(4-methoxyphenyl)-[1,2,4]triazolo[4,3-a]pyridine] | 0.081 | 0.118 | 0.035 | 0.062
17 | COc1cc(-c2ccc3nnc(-c4ccccc4OC)n3c2)ccc1C [Example 28, 6-(3-Methoxy-4-methylphenyl)-3-(2-methoxyphenyl)-[1,2,4]triazolo[4,3-a]pyridine] | 0.448 | 0.886 | 0.178 | 0.495
18 | COc1ccccc1-c1nnc2ccc(-c3ccc(O)cc3)cn12 [Example 13, 6-(4-Hydroxyphenyl)-3-(2-methoxyphenyl)-[1,2,4]triazolo[4,3-a]pyridine] | 1.28 | 2.35 | 1.01 | 0.66
19 | COc1ccc(-c2ccc3nnc(-c4c(OC)ccc(Br)c4OC)n3c2)cc1 [Example 65, 3-(3-Bromo-2,6-dimethoxyphenyl)-6-(4-methoxyphenyl)-[1,2,4]triazolo[4,3-a]pyridine] | 0.944 | 2.46 | 0.199 | 0.569
20 | COc1ccc(-c2ccc3nnc(-c4ccccc4)n3c2)cc1 [Example 68, 6-(4-Methoxyphenyl)-3-phenyl-[1,2,4]triazolo[4,3-a]pyridine] | 5.03 | 7.75 | 0.755 | 2.94
21 | COc1ccc(-c2ccc3nnc(-c4c(F)cccc4OC)n3c2)cc1 [Example 63, 3-(6-Fluoro-2-methoxyphenyl)-6-(4-methoxyphenyl)-[1,2,4]triazolo[4,3-a]pyridine] | 0.236 | 0.174 | 0.036 | 0.149
22 | COc1ccc(-c2ccc3nnc(-c4ccccc4OC(F)(F)F)n3c2)cc1 [Example 67, 6-(4-Methoxyphenyl)-3-(2-trifluoromethoxyphenyl)-[1,2,4]triazolo[4,3-a]pyridine] | 0.91 | 0.471 | 0.105 | 0.328
23 | COc1ccc([N+](=O)[O-])cc1-c1nnc2ccc(-c3ccc(OC)c([N+](=O)[O-])c3)cn12 [Example 42, 6-(4-Methoxy-3-nitrophenyl)-3-(2-methoxy-5-nitrophenyl)-[1,2,4]triazolo[4,3-a]pyridine] | 0.312 | 0.489 | 0.23 | 0.279
24 | COc1ccc(-c2ccc3nnc(-c4ccccc4OC)n3c2)cn1 [Example 15, 3-(2-Methoxyphenyl)-6-(6-methoxypyridin-3-yl)-[1,2,4]triazolo[4,3-a]pyridine] | 1.73 | 1.03 | 1.11 | 2.01
